From ChEMBL document CHEMBL5154693, “N-Methylpropargylamine-Conjugated Hydroxamic Acids as Dual Inhibitors of Monoamine Oxidase A and Histone Deacetylase for Glioma Treatment” (J Med Chem, 2022)
Activity calls are given as the source filed them. The calls are words filed in the database; no cut-off is given here.

Columns and labels:
[1] = system: Mus musculus; experiment: In vivo inhibition of MAO-A in mouse xenografted with mouse GL26 assessed as decrease in MAO activity in tumor at 50 mg/kg by radiometric analysis; type: functional
[2] = molecular target: Lysine-specific histone demethylase 1A (Homo sapiens, UniProt O60341); experiment: Inhibition of human LSD1 assessed as demethylase activity of LSD1 using Histone H3(1-21)K4me2 peptide as substrate incubated for 30 mins followed by substrate addition by amplex red dye based HRP-coupled assay
[3] = Toxicity in C57BL6 mouse xenografted with mouse GL26 cells as assessed as last day of survival at 50 mg/kg, ip for 14 days treatment started at 5 days post-infection (Rvb=14 days); type: organism-based; conditions: in vivo, 336 h, time 14 day
[4] = system: Mus musculus; experiment: In vivo inhibition of MAO-A in C57BL6 mouse xenografted with mouse GL26 cells as decrease in MAO activity in brain at 50 mg/kg, ip by radiometric analysis; type: functional, organism-based
[5] = system: Mus musculus; experiment: In vivo inhibition of MAO-A in mouse xenografted with mouse GL26 assessed as decrease in MAO activity in tumor at 25 mg/kg, ip administered for 10 days by bioluminescence assay; type: functional, organism-based; conditions: time 10.0 day
[6] = Toxicity in mouse bearing intracranial tumor assessed as median survival time at 25 mg/kg, ip for 10 days (Rvb= 13.8 days); type: organism-based; conditions: in vivo, 240 h, time 10 day
[7] = molecular target: Histone deacetylase 2 (Homo sapiens, UniProt Q92769); experiment: Inhibition of human HDAC2 (379 to 382 residues) using RHKKAc-AMC fluorogenic peptide as substrate by fluorescence assay
Histone deacetylase 2, sequence (Q92769 whole entry, the tested form may be a part): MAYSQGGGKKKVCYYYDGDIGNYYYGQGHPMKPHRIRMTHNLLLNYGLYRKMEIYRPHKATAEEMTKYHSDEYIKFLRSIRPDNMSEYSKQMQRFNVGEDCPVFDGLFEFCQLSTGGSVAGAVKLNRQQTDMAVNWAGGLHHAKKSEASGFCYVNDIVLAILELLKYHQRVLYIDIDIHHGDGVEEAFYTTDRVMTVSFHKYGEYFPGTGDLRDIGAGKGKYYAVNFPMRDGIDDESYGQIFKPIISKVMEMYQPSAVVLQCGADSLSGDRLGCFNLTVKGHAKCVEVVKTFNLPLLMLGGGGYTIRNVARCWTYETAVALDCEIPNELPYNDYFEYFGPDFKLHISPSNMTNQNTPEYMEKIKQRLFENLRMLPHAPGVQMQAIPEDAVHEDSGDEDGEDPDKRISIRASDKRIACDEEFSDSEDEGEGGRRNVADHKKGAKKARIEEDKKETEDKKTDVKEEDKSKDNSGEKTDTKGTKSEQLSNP

[8] = Toxicity in mouse bearing intracranial tumor assessed as assessed as median survival time at 25 mg/kg, ip treatment started at 7 dpi (Rvb=18.25 days); type: organism-based; conditions: in vivo, 438 h
[9] = Toxicity in mouse bearing intracranial tumor assessed as last day of survival at 25 mg/kg,ip for 10 days (Rvb=16 days); type: organism-based; conditions: in vivo, 240 h, time 10 day
[10] = system: GL26; experiment: Induction of apoptosis in mouse GL26 cells assessed as proteolytic cleavage of PARP1 incubated for 48 hrs by Western blot analysis; type: functional, cell-based; conditions: dose 1.25-5 µM, DDE = dose-dependent effect
[11] = Toxicity in mouse bearing intracranial tumor assessed as median survival time at 50 mg/kg, ip for 10 days (Rvb= 13.8 days); type: organism-based; conditions: in vivo, 240 h, time 10 day
[12] = system: GL26; experiment: Inhibition of HDAC in mouse GL26 cells assessed as increase in alpha tubulin level at 0.62 to 1.25 uM incubated for 48 hrs by Western blot analysis; type: cell-based; conditions: dose 0.62-1.25 µM, DDE = dose-dependent effect
[13] = system: GL26; experiment: Inhibition of HDAC in mouse GL26 cells assessed as increase in histone H3 acetylation at 0.62 to 1.25 uM incubated for 48 hrs by Western blot analysis; type: cell-based; conditions: dose 0.62-1.25 µM, DDE = dose-dependent effect

With `C#CCN(C)CCCOc1cc(NCc2ccc(/C=C/C(=O)NO)cc2)ccc1Cl` the Activity [1] was “Active”, the EC50 [2] was 10000 nM and the Survival [3] was 14 days. The Activity [4] was “Active”, the Activity [5] was “Active” and the Survival [6] was 16.4 days. It also gave an IC50 [7] of 1160 nM, an MST [8] of 19.5 days and a Survival [9] of 21 days.
In the case of `C#CCN(C)CCCOc1ccc(NC(=O)CCCCCCC(=O)NO)cc1Cl`, the Activity [1] is reported as “Active”, the Activity [10] is reported as “Dde” and the Survival [3] is reported as 16 days. The Activity [4] was “Active”, the Activity [5] was “Active” and the IC50 [7] was 460 nM. The Survival [11] was 14.4 days, the MST [8] was 17.25 days and the Activity [12] was “Dde”. For the same compound, the Activity [13] was “Dde”.
